Key:
[1] = Antioxidant activity assessed as DPPH scavenging activity after 30 min by spectrophotometry; type: functional
RAW264.7 [2] = experiment: Anti-inflammatory activity in Mus musculus (mouse) RAW264.7 cells assessed as inhibition of IFN-gamma/LPS-induced nitric oxide production after 17 to 20 hr by Griess assay; type: functional, cell-based
RAW264.7 [3] = experiment: Cytotoxicity against Mus musculus (mouse) RAW264.7 cells at IC50 for NO production by MTT assay; type: cell-based
RAW264.7 [4] = experiment: Cytotoxicity against Mus musculus (mouse) RAW264.7 cells at >50 uM by MTT assay; type: cell-based
RAW264.7 [5] = experiment: Cytotoxicity against Mus musculus (mouse) RAW264.7 cells at 25 uM by MTT assay; type: cell-based; details: raw264.7, 25 µM

SMILES	IC50 [1]	IC50 (RAW264.7 [2])	Activity (RAW264.7 [3])	Activity (RAW264.7 [4])	Activity (RAW264.7 [5])
CC(=O)Oc1ccc(/C=C2\CC/C(=C\c3ccc(OC(C)=O)c(OC(C)=O)c3)C2=O)cc1OC(C)=O	≥ 100 µM	≥ 50 µM	–	–	–
O=c1c(O)c(-c2ccc(O)c(O)c2)oc2cc(O)cc(O)c12 [QUERCETIN]	21.5 µM	–	–	–	–
CC(=O)N1N=C2/C(=C/c3ccc([N+](=O)[O-])cc3)CCCC2C1c1ccc([N+](=O)[O-])cc1 (stereo not drawn)	–	≥ 50 µM	–	–	–
CC(=O)N1N=C2/C(=C/c3ccc(F)cc3)CCCC2C1c1ccc(F)cc1 (stereo not drawn)	–	≥ 50 µM	–	–	–
O=C1/C(=C/c2ccc(F)cc2)CC/C1=C\c1ccc(F)cc1	≥ 100 µM	≥ 50 µM	–	–	–
O=C1/C(=C/c2ccc(O)cc2O)CC/C1=C\c1ccc(O)cc1O	50.6 µM	≥ 50 µM	–	–	–
O=C1/C(=C/c2cccc(O)c2)CC/C1=C\c1cccc(O)c1	≥ 100 µM	≥ 50 µM	–	–	–
O=C1/C(=C/c2ccc(O)cc2)CCC/C1=C\c1ccc(O)cc1	≥ 100 µM	41.6 µM	–	–	–
O=[N+]([O-])c1ccc(/C=C2\CCCC3C2=NNC3c2ccc([N+](=O)[O-])cc2)cc1 (stereo not drawn)	–	≥ 50 µM	–	–	–
O=C(c1ccccc1)N1N=C2/C(=C/c3ccc(F)cc3)CCCC2C1c1ccc(F)cc1 (stereo not drawn)	–	≥ 50 µM	–	–	–
O=C(c1ccccc1)N1N=C2/C(=C/c3ccc([N+](=O)[O-])cc3)CCCC2C1c1ccc([N+](=O)[O-])cc1 (stereo not drawn)	–	≥ 50 µM	–	–	–
COc1cc(/C=C2\CCCC3C2=NN(C(C)=O)C3c2ccc(OC(C)=O)c(OC)c2)ccc1OC(C)=O (stereo not drawn)	–	≥ 50 µM	–	–	–
O=C1/C(=C/c2ccc(F)cc2)CCC/C1=C\c1ccc(F)cc1	≥ 100 µM	≥ 50 µM	–	–	–
COc1cc(/C=C2\CC/C(=C\c3ccc(OC(C)=O)c(OC)c3)C2=O)ccc1OC(C)=O	≥ 100 µM	≥ 50 µM	–	–	–
COc1cc(/C=C2\CCCC3C2=NN(C(=O)c2ccccc2)C3c2ccc(O)c(OC)c2)ccc1O (stereo not drawn)	–	47.1 µM	–	–	–
COc1ccc(/C=C2\CCCC3C2=NN(C(C)=O)C3c2ccc(OC)c(OC)c2)cc1OC (stereo not drawn)	–	≥ 50 µM	–	–	–
Fc1ccc(/C=C2\CCCC3C2=NNC3c2ccc(F)cc2)cc1 (stereo not drawn)	–	≥ 50 µM	–	–	–
O=C1/C(=C/c2ccc(O)cc2)CC/C1=C\c1ccc(O)cc1	≥ 100 µM	≥ 50 µM	–	–	–
COC(=O)[C@@H](N)CCCNC(=N)N[N+](=O)[O-] [L-NAME]	–	26.2 µM	–	–	–

Further compounds by falling IC50 (RAW264.7 [2]), results first:

IC50 [1]	IC50 (RAW264.7 [2])	SMILES	Activity (RAW264.7 [3])	Activity (RAW264.7 [4])	Activity (RAW264.7 [5])
–	38.7 µM	COc1ccc(/C=C2\CCCC3C2=NNC3c2ccc(OC)c(OC)c2)cc1OC (stereo not drawn)	–	–	–
≥ 100 µM	29.4 µM	O=C1/C(=C/c2ccc([N+](=O)[O-])cc2)CCC/C1=C\c1ccc([N+](=O)[O-])cc1	–	–	–
–	26.9 µM	Oc1ccc(/C=C2\CCCC3C2=NNC3c2ccc(O)cc2)cc1 (stereo not drawn)	–	–	–
–	25.1 µM	COc1ccc(/C=C2\CCCC3C2=NN(C(=O)c2ccccc2)C3c2ccc(OC)c(OC)c2)cc1OC (stereo not drawn)	–	–	–
–	21.6 µM	COc1cc(/C=C/C(=O)CC(=O)/C=C/c2ccc(O)c(OC)c2)ccc1O [CURCUMIN]	–	–	–
14.8 µM	20.5 µM	O=C1/C(=C/c2ccc(O)c(O)c2)CC/C1=C\c1ccc(O)c(O)c1	–	–	–
≥ 100 µM	19.8 µM	COc1ccc(/C=C2\CCC/C(=C\c3ccc(OC)c(OC)c3)C2=O)cc1OC	–	–	–
75 µM	13.9 µM	COc1cc(/C=C2\CC/C(=C\c3ccc(O)c(OC)c3)C2=O)ccc1O	Non-toxic	Toxic	–
≥ 100 µM	13.3 µM	COc1cc(/C=C2\CCC/C(=C\c3ccc(OC(C)=O)c(OC)c3)C2=O)ccc1OC(C)=O	–	–	–
–	12.2 µM	COc1cc(/C=C2\CCCC3C2=NNC3c2ccc(O)c(OC)c2)ccc1O (stereo not drawn)	Non-toxic	Toxic	–
13.3 µM	9.43 µM	O=C1/C(=C/c2ccc(O)c(O)c2)CCC/C1=C\c1ccc(O)c(O)c1	–	–	–
≥ 100 µM	8.02 µM	CCC(=O)Oc1ccc(/C=C2\CCC/C(=C\c3ccc(OC(=O)CC)c(OC)c3)C2=O)cc1OC	–	–	–
20.7 µM	7.94 µM	O=C1/C(=C/c2cccc(O)c2O)CC/C1=C\c1cccc(O)c1O	–	–	–
≥ 100 µM	6.84 µM	CC(=O)Oc1ccc(/C=C2\CCC/C(=C\c3ccc(OC(C)=O)c(OC(C)=O)c3)C2=O)cc1OC(C)=O	–	–	–
51.9 µM	6.68 µM	COc1cc(/C=C2\CCC/C(=C\c3ccc(O)c(OC)c3)C2=O)ccc1O [CYCLOVALONE]	Non-toxic	Toxic	–
≥ 100 µM	6.09 µM	O=C1/C(=C/c2cccc(O)c2)CCC/C1=C\c1cccc(O)c1	Non-toxic	Toxic	Toxic

From ChEMBL document CHEMBL3046653, “Synthesis and evaluation of DPPH and anti-inflammatory activities of 2,6-bisbenzylidenecyclohexanone and pyrazoline derivatives” (Med Chem Res, 2012)
